The source of these data is ChEMBL document CHEMBL1201862, “PubChem BioAssay data set” (2004).

Among the test systems are TK-10; KM-20L2; SNB-19; OVCAR-8; M19-MEL; HT-29; IGROV-1; SF-539; NCI-H226; HCC 2998; DMS-273; DLD-1; COLO 205; HOP-92; SR.
What all share (test): growth of human tumour cells (NCI), 48 h

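Assay format: 96-well plates, 48-hour exposure. GI50 marks 50% less growth.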 The source made the active and inactive calls. Rule as the data show it: active = GI50 up to about 1.1 µM and inactive = higher.

`C#Cc1c(C)c(/C=C/C(C)=C\C(=O)OC)n(C)c1C`: the GI50 with TK-10 is > 100 µM (inactive); in the assay on KM-20L2, 46.6 µM (inactive); in the assay on SNB-19 it was > 100 µM (inactive); in the assay on OVCAR-8, 70.1 µM (inactive); in the assay with M19-MEL it was > 100 µM (inactive); with HT-29, 28.6 µM (inactive). Also, the GI50 is > 100 µM (inactive) in the assay with IGROV-1; 67.5 µM (inactive) with SF-539; > 100 µM (inactive) in the assay on NCI-H226; > 100 µM (inactive) in the assay with HCC 2998; > 100 µM (inactive) in the assay with DMS-273; 45.4 µM (inactive) in the assay on DLD-1. Besides, the values for the GI50 in the assay on COLO 205 and with HOP-92 were 61.2 µM (inactive) and > 100 µM (inactive), respectively.
Take `CCOC(=O)[C@H]1Nc2c(cccc2[N+](=O)[O-])C2c3ccccc3CC21` (stereo partly specified): the GI50 was > 100 µM (inactive) with TK-10; > 100 µM (inactive) with KM-20L2; > 100 µM (inactive) in the assay on SNB-19; > 100 µM (inactive) in the assay on OVCAR-8; 59.8 µM (inactive) with SR; > 100 µM (inactive) in the assay on M19-MEL. The GI50 is 18.3 µM (inactive) in the assay on HT-29; > 100 µM (inactive) in the assay with IGROV-1; > 100 µM (inactive) in the assay with SF-539; > 100 µM (inactive) in the assay with NCI-H226; > 100 µM (inactive) in the assay with HCC 2998; > 100 µM (inactive) with DMS-273. Further, the GI50 in the assay with DLD-1 and in the assay on COLO 205 was > 100 µM (inactive) throughout.
On to `Nc1ncnc2c1ncn2[C@@H]1O[C@H](COP(=O)(O)O)[C@@H](O)[C@@H]1O`, for which the GI50 in the assay with KM-20L2 was > 50 µM (inactive); in the assay on SNB-19 it was > 50 µM (inactive); in the assay with OVCAR-8 it was 12.9 µM (inactive); in the assay with M19-MEL it was > 50 µM (inactive); with HT-29, > 50 µM (inactive); in the assay on IGROV-1 it was > 50 µM (inactive). Further, the GI50 was > 50 µM (inactive) in the assay with SF-539; > 50 µM (inactive) in the assay on NCI-H226; > 50 µM (inactive) in the assay with HCC 2998; > 50 µM (inactive) in the assay with DMS-273; > 31.6 µM (inactive) in the assay with DLD-1; > 50 µM (inactive) in the assay on COLO 205. Besides, the GI50 with HOP-92 is > 31.3 µM (inactive).
With `O=NN(CCCl)C(=O)NC1CCSc2ccccc21` (stereo unspecified), the GI50 in the assay on KM-20L2 is > 100 µM (inactive); with SNB-19, > 90.2 µM (inactive); in the assay on OVCAR-8, > 100 µM (inactive); in the assay on M19-MEL, > 100 µM (inactive); in the assay on HT-29, > 100 µM (inactive); in the assay with IGROV-1, > 100 µM (inactive). Further, the GI50 with SF-539 is 27.4 µM (inactive); in the assay on NCI-H226, > 100 µM (inactive); in the assay with HCC 2998, > 100 µM (inactive); in the assay with DMS-273 it was > 100 µM (inactive); in the assay on DLD-1 it was > 100 µM (inactive); in the assay with COLO 205, > 100 µM (inactive). The GI50 in the assay with HOP-92 was > 100 µM (inactive).
As to `COc1ccc(C23C(=O)c4ccccc4N2O[C@H]2C(=O)N(c4ccccc4)C(=O)[C@H]23)cc1` (stereo partly specified), the GI50 in the assay with TK-10, in the assay with KM-20L2, in the assay with SNB-19, in the assay on OVCAR-8, in the assay with M19-MEL and in the assay with HT-29 was > 100 µM (inactive) in each case. Further, the GI50 in the assay on IGROV-1, in the assay on SF-539, in the assay with NCI-H226, in the assay on HCC 2998, in the assay with DMS-273 and in the assay on DLD-1 was > 100 µM (inactive) in each case. In addition, the GI50 with COLO 205 and with HOP-92 was > 100 µM (inactive) each time.
In the case of `Cc1c2ccnc(-c3ccccc3)c2cc2c1[nH]c1ccccc12`, the GI50 is 2.61 µM (inactive) in the assay on KM-20L2; 3.66 µM (inactive) with SNB-19; 1.13 µM (inactive) with OVCAR-8; 0.959 µM (active) in the assay on M19-MEL; 0.887 µM (active) with HT-29; 2.63 µM (inactive) in the assay on IGROV-1. In addition, the GI50 with SF-539 is 2.45 µM (inactive); in the assay on NCI-H226 it was 2.64 µM (inactive); with HCC 2998, 3.07 µM (inactive); in the assay on DMS-273, 0.425 µM (active); with DLD-1 it was 2.99 µM (inactive); with COLO 205, 0.735 µM (active). Further, in the assay on HOP-92, the GI50 was 1.25 µM (inactive).
